Series [1] relates to INT 407 cells. Kind of series: MTT cell viability assay. Type of series: cell-based, human. As for the experimental part: (§1) The toxicity of the puroindoline peptides was assessed using INT 407 epithelial cells (ATCC CCL-6) and SRBCs, as described below. The INT 407 cells (a derivative of HeLa cells) were cultured in Minimal Essential Medium (MEM) (Gibco, Grand Island, NY, United States) supplemented with 10% fetal bovine serum (FBS) and 1 mM sodium pyruvate at 37°C in humidified condition (5% CO2).
The viability of INT 407 cells was assessed by MTT assay according to the manufacturer’s recommendations (Roche Diagnostics, Mannheim, Germany). Briefly, INT 407 cells were seeded into a 96-well plate at a density of 2.5 × 10^4 cells/well in 200 μL of growth media (MEM supplemented by 10% FBS) and incubated for 24 h at 37°C under humidified conditions. Cells were rinsed twice with MEM without FBS, and different concentrations of peptides were added into the well. Triton X-100 was added as a positive control and growth medium only was added as a negative control. After treatment, the cells were incubated for different time points (3, 6, or 24 h) at 37°C in a humidified condition. At the end of each experiment, 100 μL of culture medium was removed into a new 96-well plate, and 25 μL of MTT stock solution was added into each well. The plates were incubated for 4 h at 37°C. Then, 100 μL of the solubilizing solution was added to each well, and the plate was incubated overnight at 37°C. After cooling, the plates were read at 570 nm (OD570) on a BioTek 96-well plate reader.

In the next series the test system is E. coli O157:H7. Format: cell-based, Escherichia coli. The note with it: CLSI broth microdilution, MH broth, 37°C aerobic, 24 h, OD595. As for the experimental part: (§2) C. jejuni clinical strains 81-176 and F38011 were cultured every 24 to 48 h on Mueller-Hinton (MH) agar containing 5% citrated bovine blood (MH-blood agar) or in MH broth in a shaking orbital incubator with microaerobic conditions (5% O2, 10% CO2, 85% N2) at 37°C. The generic isolates of E. coli O157:H7, L. monocytogenes, and Salmonella enterica serovar Typhimurium (S. Typhimurium) were cultured on LB agar plates in an aerobic chamber at 37°C, and methicillin-resistant S. aureus (MRSA) were cultured on an MH-blood agar plate in an aerobic chamber at 37°C.
(§3) Two-fold serial dilutions were made. The bacterial cultures were grown overnight in MH broth under the appropriate conditions, pelleted by centrifugation, and suspended in MH broth at 5 × 10^6 CFU/mL. Ten microliters of bacterial suspension (∼5 × 10^4 bacteria) was used to inoculate every well except the media control wells in 96-well microtiter plate. The plate was incubated in an orbital shaker at 37°C in a microaerobic condition for 48 h for C. jejuni strains or in aerobic conditions for 24 h for other bacteria. After incubation, the optical density was determined using a 96-well plate reader (BioTek Instruments Inc., Winooski, VT, United States) at 595 nm (OD595). […] The dose-response curves were created by log-transforming the OD595 readings. […]
For orientation: In broth dilution the organism is exposed to a series of concentrations in liquid medium.

A further series relates to L. monocytogenes. Format: cell-based, Listeria monocytogenes. The note with it: CLSI broth microdilution, MH broth, 37°C aerobic, 24 h, OD595. The protocol: as §2, §3
For series [2], the system named is C. jejuni strain 81-176. The note with it: C. jejuni 81-176, 48 h; for MIC: CLSI broth microdilution, MH broth, ~5 × 10^4 bacteria/well, 37°C microaerobic, OD595.
Series [3] has as its system sheep red blood cells (SRBCs). Nature of the series: Hemolysis assay. The note with it: ~10^8 cells/mL, 60 min, 37°C, absorbance 540 nm; 100% = 1% Triton X-100. Type of series: cell-based. The protocol:
The potential toxicity of the peptides was determined using a hemolysis assay. Briefly, SRBCs (Hardy Diagnostics, Santa Monica, CA, United States) were washed three times with 1× PBS. Aliquots containing approximately 10^8 cells/mL were incubated with different concentrations of the peptides for 60 min at 37°C in a 96-well tray. The plates were then centrifuged, and the absorbance of each supernatant was measured at 540 nm. Zero hemolysis (blank) and 100% hemolysis were determined in phosphate buffer and 1% Triton X-100, respectively.

A further series has as its system MRSA. Type of series: cell-based, Staphylococcus aureus. Particulars: CLSI broth microdilution, MH broth, 37°C aerobic, 24 h, OD595. As for the experimental part:
as §2, §3

In a further series the test system is S. Typhimurium. Format: cell-based, Salmonella enterica serovar Typhimurium. Particulars: CLSI broth microdilution, MH broth, 37°C aerobic, 24 h, OD595. The protocol:
as §2, §3

The subject of a further series is C. jejuni strain F38011. Nature of the series: microbe, parasite or virus in culture. Type of series: cell-based, Campylobacter jejuni. Particulars: for MIC: CLSI broth microdilution, MH broth, ~5 × 10^4 bacteria/well, 37°C microaerobic.
In a further series the test system is C. jejuni 81-176 biofilm. Kind of series: Biofilm formation, crystal violet staining. Type of series: cell-based, Campylobacter jejuni. Particulars: inoculum OD540 0.1, 72 h, 37°C microaerobic, no agitation.
In series [4] the test system is C. jejuni strain 81-176. Kind of series: microbe, parasite or virus in culture.
Series [5] deals with INT 407 cells. Nature of the series: Lactate dehydrogenase (LDH) cytotoxicity assay. Particulars: INT 407 cells, 3, 6 and 24 h, MEM without FBS; Triton X-100 at 0.1%. Format: cell-based, human. As for the experimental part:
as §1
The cytotoxicity of puroindoline peptides on INT 407 cells was monitored using the lactate dehydrogenase (LDH) activity assay kit (Millipore Sigma, Danvers, MA, United States) following the manufacturer’s guidelines. LDH is released from damaged cells into the medium. Briefly, INT 407 cells were seeded into a 96 well plate at a density of 2.5 × 10^4 cells/well in 200 μL growth media (MEM supplemented by 10% FBS) and incubated for 24 h at 37°C in humidified (5% CO2) conditions. The next day, cells were rinsed twice with MEM without FBS, and different concentrations of peptides were added. Cells were incubated for 3 h, 6 h or 24 h at 37°C. As a positive control, 0.1% Triton X-100 was used. Media only was used as a negative control. In the presence of Triton X-100, cells release maximum LDH. After the appropriate incubation point, the tissue culture plate was centrifuged at 2000 rpm for 5 min. […] Absorbance was recorded at 450 nm (OD450) on a BioTek 96-well plate reader.

Another series concerns blood. Particulars: blood hemolysis assay; ref Jing et al. (2003); cited from earlier work. The source says:
(§4) The cytotoxicity and hemolytic activity of PinA has been addressed in this study using human epithelial INT 407 cells and SRBCs. INT 407 cells were chosen for this study as these cells grow rapidly and easy to maintain in culture media. INT 407 cells have been used extensively in C. jejuni research for several decades ([Negretti et al., 2019]). […] The first report on the cytotoxicity of puroindolines was from [Jing et al. (2003)], where th ...

A further series concerns red blood cells. The note with it: ref Capparelli et al. (2007); cited from earlier work.
Source text: as §4

The text below walks through data of paper PMC8283790, “Inhibitory Effect of Puroindoline Peptides on Campylobacter jejuni Growth and Biofilm Formation” (Frontiers in Microbiology, 2021).

Values after ≈ are worked out from the molar mass of the structure shown. Read-outs that look alike come from different tables or passages of the source. Where a SMILES comes first, the peptide text is derived from it.

Triton X-100 [reference compound]: the “Cell viability (MTT, OD570), in words” value in the series with INT 407 cells [1] is listed as “very low absorbance at OD570”.
In the case of `CSCC[C@H](NC(=O)[C@@H](N)[C@@H](C)O)C(=O)N[C@@H](CCCCN)C(=O)N[C@@H](CC(=O)O)C(=O)N[C@@H](Cc1ccccc1)C(=O)N1CCC[C@H]1C(=O)N[C@H](C(=O)N[C@H](C(=O)N[C@@H](Cc1c[nH]c2ccccc12)C(=O)N1CCC[C@H]1C(=O)N[C@H](C(=O)NCC(=O)N[C@@H](Cc1c[nH]c2ccccc12)C(=O)N[C@@H](Cc1c[nH]c2ccccc12)C(=O)NCC(=O)NCC(=O)NCC(=O)O)[C@@H](C)O)[C@@H](C)O)C(C)C` [PinB mutant] (H-TMKDFPVTWPTGWWGGG-OH), the MIC is over 512 µg/mL against E. coli O157:H7; over 512 µg/mL in the series on L. monocytogenes; over 512 µg/mL with C. jejuni strain 81-176 [2]; over 512 µg/mL in the series on MRSA; over 512 µg/mL in the series on S. Typhimurium; over 512 µg/mL against C. jejuni strain F38011 (48 h, OD595). For the same compound, the “Concentration showing hemolysis of SRBCs” value in series [3] was at least 256 µg/mL.
Consider `CC[C@H]1OC(=O)[C@H](C)[C@@H](O[C@H]2C[C@@](C)(OC)[C@@H](O)[C@H](C)O2)[C@H](C)[C@@H](O[C@@H]2O[C@H](C)C[C@H](N(C)C)[C@H]2O)[C@](C)(O)C[C@@H](C)C(=O)[C@H](C)[C@@H](O)[C@]1(C)O` [erythromycin], for which, in the series on C. jejuni 81-176 biofilm, the “Concentration inhibiting biofilm formation” value was at least 0.25 µg/mL. Besides, the “IC10 (10% of maximal inhibitory concentration)” value in the series with C. jejuni strain 81-176 [2] (from slope of concentration-effect curve) was determined as 0.0254 µg/mL; in the series with C. jejuni strain F38011 (from slope of concentration-effect curve, 48 h), 0.0249 µg/mL. Also, the MBC against C. jejuni strain 81-176 [4] (Campylobacter jejuni, 81176) is 0.125 µg/mL (≈ 0.17 µM); in the series on C. jejuni strain F38011 (Campylobacter jejuni, wells spotted on MH agar, 24–48 h, no growth (>99.9% reduction)), 0.25 µg/mL (≈ 0.341 µM). For the same compound, the MIC against C. jejuni strain 81-176 [4] (Campylobacter jejuni, 81176, 48 h) worked out at 0.125 µg/mL (≈ 0.17 µM); in the series with C. jejuni strain F38011 (Campylobacter jejuni, 48 h, OD595, read-out: MIC) it was 0.188 µg/mL (≈ 0.255 µM). In addition, the IC50 with C. jejuni strain 81-176 [4] (Campylobacter jejuni, 81176, 48 h, read-out: IC50 (concentration at which 50% of bacteria is inhibited)) was 0.0415 µg/mL (≈ 0.0565 µM); in the series with C. jejuni strain F38011 (Campylobacter jejuni, read-out: IC50 (concentration at which 50% of bacteria is inhibited), broth microdilution, 48 h, ten concentration points, min. three biological replicates), 0.0405 µg/mL (≈ 0.0552 µM). The IC90 in the series on C. jejuni strain 81-176 [4] (Campylobacter jejuni, 81176, 48 h, read-out: IC90 (90% of maximal inhibitory concentration)) worked out at 0.0677 µg/mL (≈ 0.0922 µM); with C. jejuni strain F38011 (Campylobacter jejuni, read-out: IC90 (90% of maximal inhibitory concentration), from slope of concentration-effect curve, 48 h) it was 0.0657 µg/mL (≈ 0.0895 µM).
As for `CSCC[C@H](NC(=O)[C@@H](N)[C@@H](C)O)C(=O)N[C@@H](CCCCN)C(=O)N[C@@H](CC(=O)O)C(=O)N[C@@H](Cc1ccccc1)C(=O)N1CCC[C@H]1C(=O)N[C@H](C(=O)N[C@H](C(=O)N[C@@H](Cc1c[nH]c2ccccc12)C(=O)N[C@@H](CCCNC(=N)N)C(=O)N[C@@H](Cc1c[nH]c2ccccc12)C(=O)NCC(=O)N[C@@H](CCCCN)C(=O)N[C@@H](Cc1c[nH]c2ccccc12)C(=O)NCC(=O)N[C@@H](CCCCN)C(=O)NCC(=O)NCC(=O)O)[C@@H](C)O)C(C)C` [PinA mutant] (H-TMKDFPVTWRWGKWGKGG-OH), the MIC against E. coli O157:H7 was over 512 µg/mL; against L. monocytogenes, over 512 µg/mL; in the series on C. jejuni strain 81-176 [2], over 512 µg/mL; in the series on MRSA it was over 512 µg/mL; in the series on S. Typhimurium, over 512 µg/mL; in the series with C. jejuni strain F38011 (48 h, OD595) it was over 512 µg/mL. For the same compound, in series [3], the “Concentration showing hemolysis of SRBCs” value was at least 256 µg/mL.
Regarding `CSCC[C@H](NC(=O)[C@@H](N)[C@@H](C)O)C(=O)N[C@@H](CCCCN)C(=O)N[C@@H](CC(=O)O)C(=O)N[C@@H](Cc1ccccc1)C(=O)N1CCC[C@H]1C(=O)N[C@H](C(=O)N[C@H](C(=O)N[C@@H](Cc1c[nH]c2ccccc12)C(=O)N[C@@H](CCCNC(=N)N)C(=O)N[C@@H](Cc1c[nH]c2ccccc12)C(=O)N[C@@H](Cc1c[nH]c2ccccc12)C(=O)N[C@@H](CCCCN)C(=O)N[C@@H](Cc1c[nH]c2ccccc12)C(=O)N[C@@H](Cc1c[nH]c2ccccc12)C(=O)N[C@@H](CCCCN)C(=O)NCC(=O)NCC(=O)O)[C@@H](C)O)C(C)C` [PinA] (H-TMKDFPVTWRWWKWWKGG-OH), the “Concentration showing hemolysis of SRBCs” value in [3] was at least 256 µg/mL. In addition, the “Cytotoxicity (LDH release), in words” value in the series on INT 407 cells [5] is reported as “cytotoxic to INT 407 cells at higher concentrations”. In the series on INT 407 cells [1] (INT 407 cells, 24 h), the “Concentration reducing cell viability (MTT, OD570)” value was found to be 256 µg/mL. The “Concentration up to which no hemolytic activity was identified” value in the series with blood was 1000 µg/mL. In addition, the “Concentration up to which no hemolytic activity was displayed” value in the series with red blood cells is 150 µg/mL.
